Assay results published in PubChem BioAssay AID248 (DTP/NCI, 2004).
Where “and” joins values, the source holds several entries; their conditions need not be identical. Identical values can stand only once. Toxic doses and inconclusive results are not listed. Cut-off read from the data, not from the text of the source: active = T/C of 150% or more; inactive = T/C below 125%.

Test system: L1210 leukemia ip in BDF1 mice, survival T/C
Experiment: NCI In Vivo Anticancer Drug Screen. Data for tumor model L1210 Leukemia (intraperitoneal) in B6D2F1 (BDF1) mice
Settings: endpoint: mean survival time, higher = longer survival
Outline: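 Read-out is survival time, reported as the treated-group measurement over the vehicle-control measurement.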

[1] = dose: 50.0 mg/kg/injection, schedule: Q01DX001 (ip), vehicle: carboxymethylcellulose (CMC)
[2] = dose: 100.0 mg/kg/injection, schedule: Q01DX001 (ip), vehicle: carboxymethylcellulose (CMC)
[3] = dose: 50.0 mg/kg/injection, schedule: Q01DX009 (ip), vehicle: saline with Tween-80
[4] = dose: 100.0 mg/kg/injection, schedule: Q01DX009 (ip), vehicle: saline with Tween-80
[5] = dose: 100.0 mg/kg/injection, schedule: Q04DX003 (ip), vehicle: saline with Tween-80
[6] = dose: 200.0 mg/kg/injection, schedule: Q04DX003 (ip), vehicle: saline with Tween-80
[7] = dose: 100.0 mg/kg/injection, schedule: Q01DX001 (ip), vehicle: saline with Tween-80
[8] = dose: 200.0 mg/kg/injection, schedule: Q01DX001 (ip), vehicle: saline with Tween-80
[9] = dose: 400.0 mg/kg/injection, schedule: Q01DX001 (ip), vehicle: saline with Tween-80

Measured: T/C

CC(CO)(c1c[nH]c2ccccc12)c1c[nH]c2ccccc12
inactive: [1] 102 % of control | [2] 96 % of control | dose: 200.0 mg/kg/injection, schedule: Q01DX001 (ip), vehicle: carboxymethylcellulose (CMC) 96 % of control | dose: 400.0 mg/kg/injection, schedule: Q01DX001 (ip), vehicle: carboxymethylcellulose (CMC) 96 % of control

C=C(C)C1CCCC(Cc2cccc3c(Cl)cccc23)C1 (stereo not given)
inactive: dose: 100.0 mg/kg/injection, schedule: Q01DX001 (ip), vehicle: gum acacia 97 % of control | dose: 200.0 mg/kg/injection, schedule: Q01DX001 (ip), vehicle: gum acacia 94 % of control | dose: 400.0 mg/kg/injection, schedule: Q01DX001 (ip), vehicle: gum acacia 99 % of control

NC(CCl)=NC1CCCCC1
inactive: dose: 25.0 mg/kg/injection, schedule: Q04DX002 (ip), vehicle: saline 106 % of control | dose: 50.0 mg/kg/injection, schedule: Q04DX002 (ip), vehicle: saline 100 % of control | dose: 100.0 mg/kg/injection, schedule: Q04DX002 (ip), vehicle: saline 110 % of control and 120 % of control

N#C/C(=C\c1ccc(-c2ccccc2)cc1)c1ccc(Cl)cc1
inactive: dose: 3.13 mg/kg/injection, schedule: Q01DX009 (ip), vehicle: saline with Tween-80 98 % of control | dose: 6.25 mg/kg/injection, schedule: Q01DX009 (ip), vehicle: saline with Tween-80 92 % of control | dose: 12.5 mg/kg/injection, schedule: Q01DX009 (ip), vehicle: saline with Tween-80 93 % of control and 87 % of control | dose: 12.5 mg/kg/injection, schedule: Q04DX003 (ip), vehicle: saline with Tween-80 95 % of control | dose: 25.0 mg/kg/injection, schedule: Q04DX003 (ip), vehicle: saline with Tween-80 95 % of control | dose: 50.0 mg/kg/injection, schedule: Q04DX003 (ip), vehicle: saline with Tween-80 93 % of control

Clc1ccc(CC23CCCCC2N3)cc1 (stereo not given)
inactive: dose: 100.0 mg/kg/injection, schedule: Q04DX003 (ip), vehicle: saline sonified 95 % of control | dose: 200.0 mg/kg/injection, schedule: Q04DX003 (ip), vehicle: saline sonified 108 % of control | dose: 400.0 mg/kg/injection, schedule: Q04DX003 (ip), vehicle: saline sonified 105 % of control

CC(=O)NC(CCSCc1c2ccccc2c(C)c2ccccc12)C(=O)O (stereo not given)
inactive: [3] 86 % of control | [4] 98 % of control | [5] 95 % of control | [6] 95 % of control

C=CCN(CC=C)CCSC(=S)NCCOC
inactive: dose: 100.0 mg/kg/injection, schedule: Q01DX001 (ip), vehicle: acetone 100 % of control | dose: 100.0 mg/kg/injection, schedule: Q04DX003 (ip), vehicle: acetone 107 % of control | dose: 200.0 mg/kg/injection, schedule: Q01DX001 (ip), vehicle: acetone 97 % of control | dose: 200.0 mg/kg/injection, schedule: Q04DX003 (ip), vehicle: acetone 106 % of control | dose: 400.0 mg/kg/injection, schedule: Q01DX001 (ip), vehicle: acetone 90 % of control | dose: 400.0 mg/kg/injection, schedule: Q04DX003 (ip), vehicle: acetone 107 % of control

CN(C)c1ccc2nc3c(C(=O)O)cc(=O)c(O)c-3oc2c1
inactive: [1] 104 % of control | [2] 101 % of control

CCOC(=O)c1ccc(NCc2cnc(N)nc2N)cc1
inactive: dose: 100.0 mg/kg/injection, schedule: Q01DX001 (ip), vehicle: saline 97 % of control | dose: 200.0 mg/kg/injection, schedule: Q01DX001 (ip), vehicle: saline 90 % of control | dose: 400.0 mg/kg/injection, schedule: Q01DX001 (ip), vehicle: saline 90 % of control

COc1cc2cc(-c3cc(OC)c(OC)c(OC)c3)c3c(c2cc1OC)CNC3
inactive: dose: 12.5 mg/kg/injection, schedule: Q01DX009 (ip), vehicle: water 103 % of control | dose: 25.0 mg/kg/injection, schedule: Q01DX009 (ip), vehicle: water 93 % of control | dose: 50.0 mg/kg/injection, schedule: Q01DX009 (ip), vehicle: water 97 % of control | dose: 100.0 mg/kg/injection, schedule: Q01DX009 (ip), vehicle: water 102 % of control and 86 % of control | dose: 100.0 mg/kg/injection, schedule: Q04DX003 (ip), vehicle: water 102 % of control | dose: 200.0 mg/kg/injection, schedule: Q04DX003 (ip), vehicle: water 98 % of control | dose: 400.0 mg/kg/injection, schedule: Q04DX003 (ip), vehicle: water 109 % of control

c1ccc(-c2c(-c3ccc4c(c3)CCCC4)c(-c3ccccc3)c3c(c2-c2ccccc2)-c2cccc4cccc-3c24)cc1
inactive: [7] 87 % of control | [8] 87 % of control | [9] 100 % of control

Cc1cccc(Cl)c1NC(=O)c1cc([N+](=O)[O-])cc([N+](=O)[O-])c1
inactive: dose: 100.0 mg/kg/injection, schedule: Q01DX009 (ip), vehicle: Klucel (hydroxypropylcellulose) (HPC) 100 % of control | dose: 200.0 mg/kg/injection, schedule: Q01DX009 (ip), vehicle: Klucel (hydroxypropylcellulose) (HPC) 96 % of control

CCCCCCCCCCCC[Si](c1ccccc1)(c1ccccc1)c1ccccc1
inactive: dose: 100.0 mg/kg/injection, schedule: Q04DX003 (ip), vehicle: other 94 % of control | dose: 200.0 mg/kg/injection, schedule: Q04DX003 (ip), vehicle: other 96 % of control | dose: 400.0 mg/kg/injection, schedule: Q04DX003 (ip), vehicle: other 90 % of control

CC1(C)c2ccccc2C(C)(C)[N+]1(C)C
inactive: dose: 100.0 mg/kg/injection, schedule: Q01DX001 (ip), vehicle: other 101 % of control

O=C(O)CCCCCCC(=O)c1ccccc1
inactive: [7] 98 % of control | [8] 95 % of control | [9] 98 % of control

O=C(Nc1ccc([N+](=O)[O-])cc1)C(Cl)(Cl)Cl
inactive: dose: 50.0 mg/kg/injection, schedule: Q01DX001 (ip), vehicle: Klucel (hydroxypropylcellulose) (HPC) 94 % of control | dose: 100.0 mg/kg/injection, schedule: Q01DX001 (ip), vehicle: Klucel (hydroxypropylcellulose) (HPC) 95 % of control | dose: 200.0 mg/kg/injection, schedule: Q01DX001 (ip), vehicle: Klucel (hydroxypropylcellulose) (HPC) 97 % of control

CC(=O)OC1C(NC(=O)OCc2ccccc2)CC(NC(=O)OCc2ccccc2)C(O)C1O (stereo not given)
inactive: [5] 94 % of control | [6] 88 % of control

Oc1ccccc1/C=N\N=C(N/N=C/c1ccccc1O)N/N=C/c1ccccc1O
inactive: dose: 15.0 mg/kg/injection, schedule: Q01DX Z (ip), vehicle: saline 98 % of control | dose: 30.0 mg/kg/injection, schedule: Q01DX Z (ip), vehicle: saline 102 % of control | dose: 60.0 mg/kg/injection, schedule: Q01DX Z (ip), vehicle: saline 102 % of control | dose: 120.0 mg/kg/injection, schedule: Q01DX Z (ip), vehicle: saline 96 % of control | dose: 120.0 mg/kg/injection, schedule: Q01DX Z (oral), vehicle: saline 95 % of control | dose: 240.0 mg/kg/injection, schedule: Q01DX Z (ip), vehicle: saline 101 % of control | dose: 240.0 mg/kg/injection, schedule: Q01DX Z (oral), vehicle: saline 90 % of control | dose: 480.0 mg/kg/injection, schedule: Q01DX Z (ip), vehicle: saline 95 % of control | dose: 480.0 mg/kg/injection, schedule: Q01DX Z (oral), vehicle: saline 92 % of control | dose: 960.0 mg/kg/injection, schedule: Q01DX Z (oral), vehicle: saline 90 % of control

C[N+](C)(C)/N=C/c1ccccc1
inactive: dose: 12.5 mg/kg/injection, schedule: Q01DX009 (ip), vehicle: Klucel (hydroxypropylcellulose) (HPC) 97 % of control | dose: 25.0 mg/kg/injection, schedule: Q01DX009 (ip), vehicle: Klucel (hydroxypropylcellulose) (HPC) 103 % of control | dose: 50.0 mg/kg/injection, schedule: Q01DX009 (ip), vehicle: Klucel (hydroxypropylcellulose) (HPC) 93 % of control and 96 % of control

O=C(O)CN1C(=O)c2ccccc2C1=O
inactive: dose: 25.0 mg/kg/injection, schedule: Q01DX009 (ip), vehicle: saline with Tween-80 91 % of control | [3] 98 % of control | [4] 98 % of control | dose: 100.0 mg/kg/injection, schedule: Q04DX002 (ip), vehicle: saline with Tween-80 100 % of control | dose: 200.0 mg/kg/injection, schedule: Q04DX002 (ip), vehicle: saline with Tween-80 103 % of control | dose: 400.0 mg/kg/injection, schedule: Q04DX002 (ip), vehicle: saline with Tween-80 95 % of control

O=C(O)CC(C(=O)O)(c1c[nH]c2ccccc12)c1c[nH]c2ccccc12
inactive: dose: 75.0 mg/kg/injection, schedule: Q01DX001 (ip), vehicle: carboxymethylcellulose (CMC) 89 % of control | dose: 150.0 mg/kg/injection, schedule: Q01DX001 (ip), vehicle: carboxymethylcellulose (CMC) 93 % of control | dose: 300.0 mg/kg/injection, schedule: Q01DX001 (ip), vehicle: carboxymethylcellulose (CMC) 90 % of control
